The text below walks through data of PMC3690439 (Nuclear medicine and biology, 2012).

Read-outs that look alike come from different tables or passages of the source.

The target of one data set is P-glycoprotein (Pgp) (Homo sapiens, UniProt P08183). The data set is described as follows: Rhodamine 123 efflux inhibition assay in CCRFvcr1000 cells. Type of data set: cell-based.
In the next data set the test system is EMT6Ar1.0 tumors. The settings on record: murine tumor model; cited from earlier work.
Data set [1] has as its target P-glycoprotein (Pgp) at the blood-brain barrier (Mus musculus, UniProt P21447). The settings on record: FVB wild-type mice; cited from earlier work.
In data set [2] the test system is P-glycoprotein (Pgp) at the blood-brain barrier. The settings on record: Mdr1a/b(-/-) mice; cited from earlier work.

P-glycoprotein (Pgp), sequence (P08183 whole entry): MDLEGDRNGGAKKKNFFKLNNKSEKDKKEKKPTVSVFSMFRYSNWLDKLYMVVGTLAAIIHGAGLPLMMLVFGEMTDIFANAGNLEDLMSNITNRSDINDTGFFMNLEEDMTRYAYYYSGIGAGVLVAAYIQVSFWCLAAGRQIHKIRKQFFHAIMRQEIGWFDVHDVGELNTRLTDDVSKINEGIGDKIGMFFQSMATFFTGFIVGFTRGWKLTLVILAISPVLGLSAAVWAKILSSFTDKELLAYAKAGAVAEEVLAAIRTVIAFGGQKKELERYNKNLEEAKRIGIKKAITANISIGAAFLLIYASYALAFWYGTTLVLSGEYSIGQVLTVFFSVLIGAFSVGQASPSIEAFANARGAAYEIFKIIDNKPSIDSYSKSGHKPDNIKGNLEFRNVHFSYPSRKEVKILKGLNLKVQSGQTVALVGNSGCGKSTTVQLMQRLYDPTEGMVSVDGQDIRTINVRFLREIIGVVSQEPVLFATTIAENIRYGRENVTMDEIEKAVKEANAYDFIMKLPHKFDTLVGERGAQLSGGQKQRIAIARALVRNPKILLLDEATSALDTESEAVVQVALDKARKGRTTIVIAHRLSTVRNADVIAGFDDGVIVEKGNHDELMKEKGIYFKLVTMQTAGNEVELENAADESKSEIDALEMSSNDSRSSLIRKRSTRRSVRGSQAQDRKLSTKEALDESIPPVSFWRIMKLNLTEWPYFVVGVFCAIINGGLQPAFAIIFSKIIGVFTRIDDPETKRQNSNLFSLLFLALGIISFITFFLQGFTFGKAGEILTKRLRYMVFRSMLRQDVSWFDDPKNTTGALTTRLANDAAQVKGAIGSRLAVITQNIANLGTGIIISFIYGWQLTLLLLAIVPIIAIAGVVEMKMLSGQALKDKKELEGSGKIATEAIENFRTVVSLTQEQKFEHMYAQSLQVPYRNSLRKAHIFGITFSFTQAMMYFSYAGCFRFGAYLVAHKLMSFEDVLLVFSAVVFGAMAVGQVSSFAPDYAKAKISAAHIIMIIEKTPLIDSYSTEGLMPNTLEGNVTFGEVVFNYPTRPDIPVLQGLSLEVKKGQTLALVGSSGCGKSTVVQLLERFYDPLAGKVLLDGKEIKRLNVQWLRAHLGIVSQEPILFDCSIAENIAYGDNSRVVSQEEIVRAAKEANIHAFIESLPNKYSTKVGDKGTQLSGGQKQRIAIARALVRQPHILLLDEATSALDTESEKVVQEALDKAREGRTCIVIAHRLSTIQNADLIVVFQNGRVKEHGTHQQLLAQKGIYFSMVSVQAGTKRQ
P-glycoprotein (Pgp) at the blood-brain barrier (Mus musculus, UniProt P21447), sequence (P21447 whole entry): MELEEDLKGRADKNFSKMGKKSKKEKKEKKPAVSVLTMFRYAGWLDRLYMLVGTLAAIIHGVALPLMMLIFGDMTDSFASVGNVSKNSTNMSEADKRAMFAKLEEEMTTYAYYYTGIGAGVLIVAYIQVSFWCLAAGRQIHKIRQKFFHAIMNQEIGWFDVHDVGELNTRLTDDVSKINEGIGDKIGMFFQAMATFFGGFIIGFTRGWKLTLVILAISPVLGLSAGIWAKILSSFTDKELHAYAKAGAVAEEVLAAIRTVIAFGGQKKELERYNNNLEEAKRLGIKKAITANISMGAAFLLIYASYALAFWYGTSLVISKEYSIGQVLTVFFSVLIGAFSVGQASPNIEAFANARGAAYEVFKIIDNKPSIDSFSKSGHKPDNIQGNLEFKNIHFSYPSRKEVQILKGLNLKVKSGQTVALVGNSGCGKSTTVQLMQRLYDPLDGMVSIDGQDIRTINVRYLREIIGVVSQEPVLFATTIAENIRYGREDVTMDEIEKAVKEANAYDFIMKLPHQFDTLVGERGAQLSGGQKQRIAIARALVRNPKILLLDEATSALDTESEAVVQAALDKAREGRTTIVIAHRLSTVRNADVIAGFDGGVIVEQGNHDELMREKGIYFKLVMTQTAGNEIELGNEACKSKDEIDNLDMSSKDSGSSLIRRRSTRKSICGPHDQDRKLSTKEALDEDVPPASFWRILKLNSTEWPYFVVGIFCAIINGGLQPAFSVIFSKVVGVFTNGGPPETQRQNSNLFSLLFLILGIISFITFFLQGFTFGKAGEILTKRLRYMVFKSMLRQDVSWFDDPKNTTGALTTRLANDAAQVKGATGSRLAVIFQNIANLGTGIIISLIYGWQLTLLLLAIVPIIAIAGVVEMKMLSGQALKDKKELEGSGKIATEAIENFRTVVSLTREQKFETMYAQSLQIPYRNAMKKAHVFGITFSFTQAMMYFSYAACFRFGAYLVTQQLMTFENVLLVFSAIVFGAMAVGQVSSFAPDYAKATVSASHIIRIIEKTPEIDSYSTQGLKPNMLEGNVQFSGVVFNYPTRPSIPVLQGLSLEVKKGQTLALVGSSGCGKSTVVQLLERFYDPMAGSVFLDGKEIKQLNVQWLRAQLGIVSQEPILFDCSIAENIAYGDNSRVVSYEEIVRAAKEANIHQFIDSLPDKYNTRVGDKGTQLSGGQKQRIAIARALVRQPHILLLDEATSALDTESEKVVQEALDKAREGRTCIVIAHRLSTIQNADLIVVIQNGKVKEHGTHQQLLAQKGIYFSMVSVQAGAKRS

Turning to `COc1ccc(-c2ccc(CN3CCc4cc(OC)c(OC)cc4C3)cc2)cc1` [MC113], the IC50 on P-glycoprotein (Pgp) (read-out: IC50 for inhibition of Pgp-mediated rhodamine 123 efflux, CCRFvcr1000 cells, mean±SD, at least 3 independent experiments in duplicate) was 375 ± 60 nM. Regarding `COc1cc2c(cc1OC)CN(CCc1ccc(NC(=O)c3cc(OC)c(OC)cc3NC(=O)c3cnc4ccccc4c3)cc1)CC2` [[^11C]tariquidar], the “higher AUC0-60 in EMT6Ar1.0 than in EMT6 tumors” value in the data set with EMT6Ar1.0 tumors is “approximately 60%”. Besides, the “mean brain AUC0-60” value in data set [1] is 9 ± 1 min; in data set [2] it was 17 ± 2 min. In turn, `COc1cc2c(cc1OC)CN(CCc1ccc(NC(=O)c3cc(OC)c(OC)cc3NC(=O)c3cnc4ccccc4c3)cc1)CC2` [tariquidar] showed an IC50 against P-glycoprotein (Pgp) of 8.5 ± 2.5 nM.

As usually defined, the IC50 is the concentration that gives 50% inhibition.
